Residues, ends and D or L forms follow the SMILES beside them. No end group written: not given here. *: point of attachment. Succinimide(1-Et,3-yl) = CCN1C(=O)CC(*)C1=O

The experiment has as its target T1, human CRHR2 (Homo sapiens, UniProt Q13324).
T1 construct: expressed in transfected cells
T1 sequence (Q13324 1-411): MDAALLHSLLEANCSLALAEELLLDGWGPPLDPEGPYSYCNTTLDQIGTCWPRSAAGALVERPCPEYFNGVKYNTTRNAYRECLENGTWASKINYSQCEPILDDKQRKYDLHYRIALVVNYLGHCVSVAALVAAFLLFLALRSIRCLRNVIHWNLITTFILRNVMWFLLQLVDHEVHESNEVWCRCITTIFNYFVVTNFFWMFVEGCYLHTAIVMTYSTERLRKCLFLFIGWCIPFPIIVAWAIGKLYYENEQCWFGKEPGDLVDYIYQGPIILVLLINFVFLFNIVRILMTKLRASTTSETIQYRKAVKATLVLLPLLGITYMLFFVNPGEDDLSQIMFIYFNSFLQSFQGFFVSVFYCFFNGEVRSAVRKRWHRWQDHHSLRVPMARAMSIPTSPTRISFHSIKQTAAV
Briefly: cAMP assay in h-CRHR2 transfected SK-N-MC cells. The conditions noted are these: for Log DR: Table 13, h-SCP control pA50 minus test compound pA50 within same assay batch; for Kd: tested as antagonists of h-SCP at 10 μM, read-out: receptor affinity (KA); for nH: Hill slope. In kind it is cell-based. Put shortly: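 SK-N-MC cells stably expressing human CRHR2 were stimulated with peptides (1 pM-10 μM) for 60 min at 37 °C with 10 μM IBMX, then lysed in 0.5 M HCl. cAMP was quantified by competitive [125I]-cAMP antibody flash-plate assay. Hill-equation fits gave A50/pA50; Log DR was taken relative to h-SCP control in the same batch.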
In general terms: Changes in cAMP serve as a functional read-out for many G protein-coupled receptors.

With `CC[C@H](C)[C@H](NC(=O)[C@H](CCC(N)=O)NC(=O)[C@H](C)NC(=O)[C@H](CCSC)NC(=O)[C@H](CC(C)C)NC(=O)[C@H](Cc1c[nH]cn1)NC(=O)[C@H](C)NC(=O)[C@H](CC(N)=O)NC(=O)[C@H](C)NC(=O)[C@H](C)NC(=O)[C@H](C)NC(=O)[C@H](CCC(N)=O)NC(=O)[C@H](C)NC(=O)[C@H](CCCNC(=N)N)NC(=O)[C@H](CC(C)C)NC(=O)[C@H](CC(N)=O)NC(=O)[C@H](CCCCN)NC(=O)[C@H](C)NC(=O)[C@H](CCCCN)NC(=O)[C@H](C)NC(=O)[C@@H](NC(=O)[C@H](CC(N)=O)NC(=O)[C@H](Cc1ccccc1)NC(=O)[C@H](CC(C)C)NC(=O)[C@H](CSC1CC(=O)N(CC)C1=O)NC(=O)[C@H](CC(N)=O)NC(=O)[C@H](CCSC)NC(=O)[C@@H](NC(=O)[C@H](CC(N)=O)NC(=O)[C@@H](NC(=O)[C@@H]1CCCN1C(=O)[C@@H](NC(=O)[C@H](CC(=O)O)NC(=O)[C@H](CC(C)C)NC(=O)[C@H](CO)NC(=O)[C@H](CC(C)C)NC(=O)[C@@H](NC(=O)[C@H](Cc1ccccc1)NC(=O)[C@H](CCCCN)NC(=O)[C@@H](N)[C@@H](C)O)[C@@H](C)O)C(C)C)[C@@H](C)O)[C@@H](C)CC)[C@@H](C)CC)C(N)=O` (stereo partly shown) [SEQ ID NO: 54, TKFTL SLDVP TNIMN C(-NES)LFNI AKAKN LRAQA AANAH LMAQI-NH2] (H-TKFTLSLDVPTNIMNC(Succinimide(1-Et,3-yl))LFNIAKAKNLRAQAAANAHLMAQI-NH2; N-terminus assumed), the “Log DR” value is −0.08.
Same read-out and setting: the result for “CKFTLSLDVPTNIMNLLFNIAKAKNLRAQAAANAHLMAQI-NH2 [SEQ ID NO: 2, CKFTLSLDVPTNIMNLLFNIAKAKNLRAQAAANAHLMAQI-NH2]” reads 0.72.
As to “DVPTNIMNLLFNIAKAKNLRAQAAANAHLMAQI-NH2 [SEQ ID NO: 112, DVPTNIMNLLFNIAKAKNLRAQAAANAHLMAQI-NH2]”, the Kd is under 10 µM.
As for “KFTLSLDVPTNIMNLLFNIAKAKNLRAQAAANAHLMAQI-NH2 [SEQ ID NO: 107, KFTLSLDVPTNIMNLLFNIAKAKNLRAQAAANAHLMAQI-NH2]”, the nH (Table 12) is given as 1.07.
For the compound “LDVPTNIMNLLFNIAKAKNLRAQAAANAHLMAQI-NH2 [SEQ ID NO: 111, LDVPTNIMNLLFNIAKAKNLRAQAAANAHLMAQI-NH2]”, the Kd is under 10 µM.
Turning to “LSLDVPTNIMNLLFNIAKAKNLRAQAAANAHLMAQI-NH2 [SEQ ID NO: 109, LSLDVPINIMNLLFNIAKAKNLRAQAAANAHLMAQI-NH2]”, for the setting “Table 12”, the nH worked out at 0.74.
“SLDVPTNIMNLLFNIAKAKNLRAQAAANAHLMAQI-NH2 [SEQ ID NO: 110, SLDVPTNIMNLLFNIAKAKNLRAQAAANAHLMAQI-NH2]”: the Kd is under 10 µM.
With “TCFTLSLDVPTNIMNLLFNIAKAKNLRAQAAANAHLMAQI-NH2 [SEQ ID NO: 3, TCFTLSLDVPTNIMNLLFNIAKAKNLRAQAAANAHLMAQI-NH2]”, the “Log DR” value is 0.72.
Still for that read-out and setting: the value for “TKCTLSLDVPTNIMNLLFNIAKAKNLRAQAAANAHLMAQI-NH2 [SEQ ID NO: 4, TKCTLSLDVPTNIMNLLFNIAKAKNLRAQAAANAHLMAQI-NH2]” was 1.03; that for “TKFCLSLDVPTNIMNLLFNIAKAKNLRAQAAANAHLMAQI-NH2 [SEQ ID NO: 5, TKFCLSLDVPTNIMNLLFNIAKAKNLRAQAAANAHLMAQI-NH2]” was 0.76.
On the same count and under the same terms, the value for “TKFTCSLDVPTNIMNLLFNIAKAKNLRAQAAANAHLMAQI-NH2 [SEQ ID NO: 6, TKFTCSLDVPTNIMNLLFNIAKAKNLRAQAAANAHLMAQI-NH2]” was 0.61.
Take “TKFTLSLDVPTNIMNLLFNIAKAKNLRC(-IA-PEG MW20000)QA AANAH LMAQI-NH2 (TKFTLSLDVPTNIMNLLFNIAKAKNLRC(IA‑PEG 20 kDa)QAAANAHLMAQI-NH2) [SEQ ID NO: 102]”: under “Table 14”, the pA50 was 8.15 and the nH worked out at 1.05. The αmax (Table 14, % of the maximum response obtained to h-SCP) worked out at 111.1%. Besides, where the note is “in the presence of 100 nM anti-sauvagine-30, maximal response constrained to 100%”, the pA50 approximate value is reported as about 6.89.
Regarding “TKFTLCLDVPTNIMNLLFNIAKAKNLRAQAAANAHLMAQI-NH2 [SEQ ID NO: 7, TKFTLCLDVPTNIMNLLFNIAKAKNLRAQAAANAHLMAQI-NH2]”, the “Log DR” value is on record as 2.08.
Still for that read-out and setting: the result for “TKFTLSCDVPTNIMNLLFNIAKAKNLRAQAAANAHLMAQI-NH2 [SEQ ID NO: 8, TKFTLSCDVPTNIMNLLFNIAKAKNLRAQAAANAHLMAQI-NH2]” reads 2.86.
For “TKFTLSLCVPTNIMNLLFNIAKAKNLRAQAAANAHLMAQI-NH2 [SEQ ID NO: 9, TKFTLSLCVPTNIMNLLFNIAKAKNLRAQAAANAHLMAQI-NH2]”, the “Log DR” value worked out at 1.89.
The same measure, in the same setting: the value for “TKFTLSLDCPTNIMNLLFNIAKAKNLRAQAAANAHLMAQI-NH2 [SEQ ID NO: 10, TKFTLSLDCPTNIMNLLFNIAKAKNLRAQAAANAHLMAQI-NH2]” was 1.30.
Still for that read-out and setting: the result for “TKFTLSLDVCTNIMNLLFNIAKAKNLRAQAAANAHLMAQI-NH2 [SEQ ID NO: 11, TKFTLSLDVCTNIMNLLFNIAKAKNLRAQAAANAHLMAQI-NH2]” reads 0.82.
The same measure, in the same setting: the result for “TKFTLSLDVPCNIMNLLFNIAKAKNLRAQAAANAHLMAQI-NH2 [SEQ ID NO: 12, TKFTLSLDVPCNIMNLLFNIAKAKNLRAQAAANAHLMAQI-NH2]” reads 1.72; that for “TKFTLSLDVPTCIMNLLFNIAKAKNLRAQAAANAHLMAQI-NH2 [SEQ ID NO: 13, TKFTLSLDVPTCIMNLLFNIAKAKNLRAQAAANAHLMAQI-NH2]”, −0.01; that for “TKFTLSLDVPTNCMNLLFNIAKAKNLRAQAAANAHLMAQI-NH2 [SEQ ID NO: 14, TKFTLSLDVPTNCMNLLFNIAKAKNLRAQAAANAHLMAQI-NH2]”, over 2.
With “TKFTLSLDVPTNICNLLFNIAKAKNLRAQAAANAHLMAQI-NH2 [SEQ ID NO: 15, TKFTLSLDVPTNICNLLFNIAKAKNLRAQAAANAHLMAQI-NH2]”, the “Log DR” value is recorded as 0.90.
The same measure, in the same setting: the value for “TKFTLSLDVPTNIMCLLFNIAKAKNLRAQAAANAHLMAQI-NH2 [SEQ ID NO: 16, TKFTLSLDVPTNIMCLLFNIAKAKNLRAQAAANAHLMAQI-NH2]” was 0.76.
With “TKFTLSLDVPTNIMNCLFNIAKAKNLRAQAAANAHLMAQI-NH2 [SEQ ID NO: 17, TKFTLSLDVPTNIMNCLFNIAKAKNLRAQAAANAHLMAQI-NH2]”, the “Log DR” value was determined as 0.02.
Still for that read-out and setting: the result for “TKFTLSLDVPTNIMNLCFNIAKAKNLRAQAAANAHLMAQI-NH2 [SEQ ID NO: 18, TKFTLSLDVPTNIMNLCFNIAKAKNLRAQAAANAHLMAQI-NH2]” reads 1.11; that for “TKFTLSLDVPTNIMNLLCNIAKAKNLRAQAAANAHLMAQI-NH2 [SEQ ID NO: 19, TKFTLSLDVPTNIMNLLCNIAKAKNLRAQAAANAHLMAQI-NH2]”, 1.67; that for “TKFTLSLDVPTNIMNLLFCIAKAKNLRAQAAANAHLMAQI-NH2 [SEQ ID NO: 20, TKFTLSLDVPTNIMNLLFCIAKAKNLRAQAAANAHLMAQI-NH2]”, 0.52.
“TKFTLSLDVPTNIMNLLFNCAKAKNLRAQAAANAHLMAQI-NH2 [SEQ ID NO: 21, TKFTLSLDVPTNIMNLLFNCAKAKNLRAQAAANAHLMAQI-NH2]”: the “Log DR” value was 0.77.
On the same count and under the same terms, the value for “TKFTLSLDVPTNIMNLLFNIACAKNLRAQAAANAHLMAQI-NH2 [SEQ ID NO: 23, TKFTLSLDVPTNIMNLLFNIACAKNLRAQAAANAHLMAQI-NH2]” was 1.13.
For the compound “TKFTLSLDVPTNIMNLLFNIAKACNLRAQAAANAHLMAQI-NH2 [SEQ ID NO: 25, TKFTLSLDVPTNIMNLLFNIAKACNLRAQAAANAHLMAQI-NH2]”, the “Log DR” value is recorded as 0.35.
With “TKFTLSLDVPTNIMNLLFNIAKAKCLRAQAAANAHLMAQI-NH2 [SEQ ID NO: 26, TKFTLSLDVPTNIMNLLFNIAKAKCLRAQAAANAHLMAQI-NH2]”, the “Log DR” value was found to be 0.08.
The same measure, in the same setting: the value for “TKFTLSLDVPTNIMNLLFNIAKAKNCRAQAAANAHLMAQI-NH2 [SEQ ID NO: 27, TKFTLSLDVPTNIMNLLFNIAKAKNCRAQAAANAHLMAQI-NH2]” was 0.76.
On the same count and under the same terms, the result for “TKFTLSLDVPTNIMNLLFNIAKAKNLCAQAAANAHLMAQI-NH2 [SEQ ID NO: 28, TKFTLSLDVPTNIMNLLFNIAKAKNLCAQAAANAHLMAQI-NH2]” reads 0.16; that for “TKFTLSLDVPTNIMNLLFNIAKAKNLRACAAANAHLMAQI-NH2 [SEQ ID NO: 30, TKFTLSLDVPTNIMNLLFNIAKAKNLRACAAANAHLMAQI-NH2]”, 1.28; that for “TKFTLSLDVPTNIMNLLFNIAKAKNLRAQAAACAHLMAQI-NH2 [SEQ ID NO: 34, TKFTLSLDVPTNIMNLLFNIAKAKNLRAQAAACAHLMAQI-NH2]”, over 3.19.
With “TKFTLSLDVPTNIMNLLFNIAKAKNLRAQAAANACLMAQI-NH2 [SEQ ID NO: 36, TKFTLSLDVPTNIMNLLFNIAKAKNLRAQAAANACLMAQI-NH2]”, the “Log DR” value is recorded as 0.42.
Still for that read-out and setting: the result for “TKFTLSLDVPTNIMNLLFNIAKAKNLRAQAAANAHCMAQI-NH2 [SEQ ID NO: 37, TKFTLSLDVPTNIMNLLFNIAKAKNLRAQAAANAHCMAQI-NH2]” reads 1.05.
Still for that read-out and setting: the value for “TKFTLSLDVPTNIMNLLFNIAKAKNLRAQAAANAHLCAQI-NH2 [SEQ ID NO: 38, TKFTLSLDVPTNIMNLLFNIAKAKNLRAQAAANAHLCAQI-NH2]” was over 2.95.
